Results on four compounds are retold here after US20240317734A1, “BI-FUNCTIONAL COMPOUNDS AND METHODS FOR TARGETED UBIQUITINATION OF ANDROGEN RECEPTOR” (MONTELINO THERAPEUTICS, INC., priority 2021, published 2024).

The assay deals with 22Rv1-Enz^R. The assay can be described thus: 22Rv1-Enz^R cell proliferation assay. The class given is cell-based. The following applies: human prostate cancer cell line 22Rv1-Enz^R; 6-day culture, cell media changed every 24 hours; half maximal growth inhibition constant; read-out: 22Rv1-Enz^R proliferation assay GIC50. On the procedure:
The human prostate cancer cell line, 22Rv1 has been reported to express a high level of AR-V7. According to one procedure, 22Rv1 is seeded at 50,000 cells/well on a 24-well plate in quadruplicate and treated with test compounds in concentrations ranging up to 20 μM for four days. Standard culture media is RPMI-1640 supplemented with 10% fetal bovine serum. The test compound initially is dissolved in DMSO at 50 mM. This stock solution is then diluted as needed for the indicated concentrations. At the end of the four-day period, cells are harvested using 1% trypsin and counted using an automated cell counter.
Cell Culture. Human CaP cell lines, LNCaP, 22Rv1, VCaP, PC3, and DU145 are obtained from the American Type Culture Collection (ATCC) and maintained in the standard culture media: RPMI-1640 supplemented with 10% fetal bovine serum (FBS). LNCaP, 22Rv1, and VCaP are androgen-responsive cell lines, while PC3 and DU145 are not. To establish SAT resistant CaP cell lines, LNCaP, 22Rv1, and VCaP are treated continuously with 10-50 μM abiraterone, apalutamide, darolutamide, or enzalutamide. After 3-6 months, stable cell lines are established and designated as LNCaP-Abi^R, LNCaP-Apa^R, LNCap-Daro^R, LNcaP-Enz^R, VcaP-Abi^R, VCaP-Apa^R, VCaP-Daro^R, VCaP-Enz^R, 22Rv1-Abi^R, 22Rv1-Apa^R, 22Rv1-Daro^R, and 22Rv1-Enz^R. Unless otherwise specified, the standard culture media for these SAT-resistant cell lines included 10 μM of their respective SAT. For the proteasome inhibitor study, the inhibitors MG132 and Epoxomicin are used. The E3 ligase inhibitors Heclin, Nutlin 3a, Thalidomide, and VH298 are used. Cell lines obtained from ATCC are confirmed by checking their morphology using optical microscopy, establishing baselines for cell proliferation, verifying species of origin using isoenzymology, and characterizing the cell's DNA fingerprint using short tandem repeat (STR) profiling. Mycoplasma contamination is also assessed using a PCR based detection system.
Selected compounds may be tested in the human prostate cancer cell line, 22Rv1-Enz^R, as described in Geun Tack Lee et al., Molecular Cancer Therapeutics, 20:490-9 (2021). These procedures are similar to that described in Experimental Example 1, above, except that the assay conditions are a 6-day culture with cell media changed every 24 hours.
For `O=C(COc1c(-c2csc(N3CCOCC3)n2)ccc(F)c1F)NCCCCNc1ccc2nnn(C3CCC(=O)NC3=O)c(=O)c2c1` (stereo not shown) [Example 1, 2-(2,3-difluoro-6-(2-morpholinothiazol-4-yl)phenoxy)-N-(4-((3-(2,6-dioxopiperidin-3-yl)-4-oxo-3,4-dihydrobenzo[d][1,2,3]triazin-6-yl)amino)butyl)acetamide], the IC50 is less than 100 µM. Take `O=C(COc1c(-c2csc(N3CCOCC3)n2)ccc(F)c1F)NCCCCCCNc1ccc2nnn(C3CCC(=O)NC3=O)c(=O)c2c1` (stereo not shown) [Example 2, 2-(2,3-difluoro-6-(2-morpholinothiazol-4-yl)phenoxy)-N-(6-((3-(2,6-dioxopiperidin-3-yl)-4-oxo-3,4-dihydrobenzo[d][1,2,3]triazin-6-yl)amino)hexyl)acetamide]: the IC50 was less than 10 µM. `O=C1CCC(n2nnc3ccc(NCCOCCOCCOc4c(-c5csc(N6CCOCC6)n5)ccc(F)c4F)cc3c2=O)C(=O)N1` (stereo not shown) [Example 3, 3-(6-((2-(2-(2-(2,3-difluoro-6-(2-morpholinothiazol-4-yl)phenoxy)ethoxy)ethoxy)ethyl)amino)-4-oxobenzo[d][1,2,3]triazin-3(4H)-yl)piperidine-2,6-dione]: the IC50 is less than 100 µM. As for `O=C(COc1c(-c2csc(N3CCOCC3)n2)ccc(F)c1F)NCCCCCCCCCCNc1ccc2nnn(C3CCC(=O)NC3=O)c(=O)c2c1` (stereo not shown) [Example 4, 2-(2,3-difluoro-6-(2-morpholinothiazol-4-yl)phenoxy)-N-(10-((3-(2,6-dioxopiperidin-3-yl)-4-oxo-3,4-dihydrobenzo[d][1,2,3]triazin-6-yl)amino)decyl)acetamide], the IC50 was less than 10 µM.
